Measured values taken from US20250073234A1, “COMBINATION THERAPIES INCLUDING PARP1 INHIBITORS” (Cornell University, priority 2022, published 2025).

B1: PEGPH20: PEGylated Recombinant Human Hyaluronidase, clinical-grade recombinant hyaluronidase (provided by Halozyme Therapeutics) (protein, UniProt P38567 36-490, looked up)
Hyaluronidase PH-20: LNFRAPPVIPNVPFLWAWNAPSEFCLGKFDEPLDMSLFSFIGSPRINATGQGVTIFYVDRLGYYPYIDSITGVTVNGGIPQKISLQDHLDKAKKDITFYMPVDNLGMAVIDWEEWRPTWARNWKPKDVYKNRSIELVQQQNVQLSLTEATEKAKQEFEKAGKDFLVETIKLGKLLRPNHLWGYYLFPDCYNHHYKKPGYNGSCFNVEIKRNDDLSWLWNESTALYPSIYLNTQQSPVAATLYVRNRVREAIRVSKIPDAKSPLPVFAYTRIVFTDQVLKFLSQDELVYTFGETVALGASGIVIWGTLSIMRSMKSCLLLDNYMETILNPYIINVTLAAKMCSQVLCQEQGVCIRKNWNSSDYLHLNPDNFAIQLEKGGKFTVRGKPTLEDLEQFSEKFYCSCYSTLSCKEKADVKDTDAVDVCIADGVCIDAFLKPPMETEEPQIFYNASPSTLS
modifications: PEGylated

Tests used:
WPMY-1 cells [1] = assay: ATAC-seq chromatin accessibility in WPMY-1 cells; assay type: cell-based, human; details: lactate-treated WPMY-1 cells, 48 h
Description: The cell pellet was resuspended in 50 μl lysis buffer and then spun down 500×g for 10 minutes at 4° C. The nuclei pellet was resuspended into 50 μl transposition reaction mixture containing Tn5 transposase from Nextera DNA Library Prep Kit (Illumina) and incubated at 37° C. for 30 minutes. Then the transposase-associated DNA was purified using MinElute PCR purification kit (QIAGEN). To amplify the library, the DNA was first amplified for 5 cycles using indexing primer from Nextera kit and NEBNext High-Fidelity 2×PCR master mix. To reduce the PCR amplification bias, 5 μl of amplified DNA after the first 5 cycles was used to do qPCR of 20 cycles to decide the number of cycles for the second round of PCR. Usually, the maximum cycle of the second round of PCR is 5 cycles. Then the total amplified DNA was size selected to fragments less than 800 bp using SPRI beads. Quantification of the ATAC-seq library was done with QuBit. The size of the pooled library was examined by TapeStation. Barcoded ATAC-seq libraries were pooled and paired end sequenced (sX75) on the Illumina NextSeq 500 using the High output V2.5 kit (Illumina Inc., San Diego, CA).
Peaks were annotated with ChipSeeker R package. […].

AP-1 = assay: AP-1-driven luciferase reporter in WPMY-1 cells; assay type: cell-based, human; details: lactate 48 h
WPMY-1 cells [2] = assay: Intracellular NAD levels in WPMY-1 cells; assay type: cell-based, human; details: stromal fibroblasts treated with lactate vs untreated
Description: Quantification was carried out using the NAD/NADH quantification colorimetric kit (Cat. No. MAK037, Sigma) according to the manufacturer's protocol. At least three independent measurements were carried out.

PARP-1 = assay: Poly(ADP-ribosyl)ation in WPMY-1 cells (immunoblot, immunoprecipitation); assay type: cell-based, human
Description: Cells for protein analysis were lysed in RIPA buffer (20 mM Tris-HCl, […], 2 mM EDTA, 1% Triton-X, 10% glycerol, 0.1% SDS, and 0.5% sodium deoxycholate) with phosphatase and protease inhibitors. For immunoprecipitations, cells were lysed in IP lysis buffer (100 mM NaCl, 25 mM Tris, 1% Triton-X, 10% glycerol, with phosphatase and protease inhibitors) and immunoprecipitated with 25 μl of 50% slurry of protein […] beads (Bioworld). Immunoprecipitates were washed three times with lysis buffer, once with high salt (500 mM NaCl), and once more with lysis buffer. Protein concentration in lysates was determined by using Protein Assay Kit (Bio-Rad). Cell extracts and immunoprecipitated proteins were denatured, subjected to SDS-PAGE, transferred to PVDF membranes (GE Healthcare). After blocking with 5% nonfat dry milk in Tris-buffered saline and 0.1% Tween (TBS-T), the membranes were incubated with the specific antibodies (as listed in Key Resources Table) overnight at 4° C. After 2 hours incubation with the appropriate horseradish peroxidase-conjugated antibodies, the immune complexes were detected by chemiluminescence (Thermo Scientific) or Near-infrared fluorescence (LI-COR).

PC3 cells [3] = assay: Trans-well migration and invasion of PC3 cells co-cultured with pre-treated WPMY-1 cells; assay type: cell-based, human; details: Olaparib 10 μM + PEGPH20 2.5 μg/ml, basal and ADT
Description: For co-culture migration and invasion assays, 8×10^4 WPMY-1 cells were plated onto the lower chamber of a 24 well plate in DMEN containing 10% FBS (basal conditions) or 10% charcoal stripped FBS (ADT conditions) and vehicle (DMSO) or Olaparib 10 μM or Olaparib 10 μM+PEGPH20 2.5 μg/ml for 48 hours. 5×10^4 PC3 were seeded in a transwell chamber (Corning Biocoat control inserts) or in a transwell invasion chamber (Corning BioCoat Matrigel Invasion Chambers), both with 8 μm membrane. PC3 were allowed to migrate or invade for 20 hours at 37° C., 5% CO2. Cells were fixed in cold methanol and stained with crystal violet.

PC3 cells [4] = assay: Click-iT EdU proliferation of PC3 cells treated with CM from WPMY-1 cells; assay type: cell-based, human; details: Olaparib 10 μM + PEGPH20 2.5 μg/ml or CM incubation with Galunisertib 10 μM
Description: WPMY-1 cells were cultured in DMEN containing 10% FBS (basal conditions) or 10% charcoal stripped FBS (ADT conditions), then the cells were treated with vehicle (DMSO), Olaparib 10 μM, Olaparib 10 μM+PEGPH20 2.5 μg/ml for 96 hours, refreshing media and stimuli at 48 hours, conditioned media (CM) was generated by collecting supernatant on day 4. PC3 cells were seeded in a black-walled well (Thermo Fisher) and serum starved overnight. CM from WPMY-1 cells was added to PC3 for 24 h. PC3 were exposed to EdU incorporation for the last 2 hours. Proliferating cells were detected using Click-iT EdU Alexa fluor 488 (Thermo Fisher) following the manufacturer's instructions. Pictures were taken using EVOS M5000 Imaging System and EdU positive were measured using Fiji (Schindelin et al., 2012).

PC3 + WPMY-1 tumors = assay: Subcutaneous xenograft co-implantation of PC3 and WPMY-1 cells in NSG mice; assay type: in vivo, mouse; details: Olaparib 40 mg/Kg + PEGPH20 0.0375 mg/Kg, twice a week, 2 weeks
Description: For mouse xenografts using PC3 PCa cells and sgC or sgAP-1 WPMY-1 stromal cells. 7 weeks old NSG mice were surgical castrated and let androgen levels drop for 10 days. Cells were trypsinized washed two times in PBS and resuspend in DMEN. 1×10^6 PC3 and 1×10^6 sgC or sgAP1-A WPMY-1 for each mouse were resuspended in 100 μl DMEM: Matrigel (1:1) and injected subcutaneously into both flanks of immunocompromised NSG mice (PC3+sgC WPMY-1 n=4; PC3+sgAP-1 WPMY-1 n=4). Tumors were allowed to grow for 1 month. Mice were euthanized and tumors were collected and analyzed histologically. For Olaparib treatment in mouse xenografts. PC3 PCa cells and WPMY-1 stromal cells were trypsinized washed two times in PBS and resuspend in DMEN. 1×10^6 PC3 and 1×10^6 WPMY-1 for each mouse were resuspended in 100 μl DMEM: Matrigel (1:1) and injected subcutaneously into both flanks of immunocompromised NSG mice. Tumors were allowed to grow for 14 days, and mouse were randomly divided to receive vehicle, n=10, Olaparib (40 mg/kg, 2 days each week, i.p.), n=10 or Olaparib (40 mg/kg, 2 days each week, i.p.)+_PEGPH20 (0.0375 mg/Kg, 2 days each week, retroorbital injection) n=10. Tumors were measured twice a week. Mice were euthanized 14 days after the initiation of the treatment and tumors were collected and analyzed histologically. For Olaparib treatment in mice, 13 weeks-old male TRAMP^+, n=18, were randomly distributed to receive vehicle, n=9, or Olaparib (40 mg/kg/, 5 days each week, i.p.), n=9. Mice were euthanized 1 month after the initiation of the treatment. Prostate and other organs were collected and analyzed histologically.
Tissues from indicated mice were isolated, fixed in zinc buffered formalin overnight at 4° C., dehydrated, and embedded in paraffin. Sections (5 μm) were stained with hematoxylin and eosin (H&E). For immunohistochemistry, sections were deparaffinized, rehydrated, and then treated for antigen retrieval. […] Stained sections were analyzed with a Zeiss light microscope supplemented with Zen 3.3 Bule edition software.

[5] = tested on: hyaluronan (HA) in WPMY-1 cells; assay: Immunofluorescence for HABP (HA deposition) in WPMY-1 cells; assay type: cell-based, human; details: Olaparib 10 μM + PEGPH20 2.5 μg/ml, 96 h, basal and ADT
Description: WPMY-1 cells were seeded in coverslides and cultured in DMEN containing 10% FBS (basal conditions) or 10% charcoal stripped FBS (ADT conditions), then the cells were treated with vehicle (DMSO), Olaparib 10 μM, Olaparib 10 μM+PEGPH20 2.5 μg/ml for 96 hours, refreshing media and stimuli at 48 hours. Cells were fixed in PFA 4% for 20 minutes at room temperature, permeabilize and blocked following abcam's immunofluorescence protocol. Then, cells were incubated overnight with Hyaluronic acid binding protein (HABP) at 4° C. Cells were incubated with Alexa conjugated streptavidin and mounted in slides with mowiol. Pictures were taken by Zeiss LSM 710 NLO Confocal Microscope.

[6] = tested on: metastatic pancreas cancer; details: cited from earlier work

Row | Molecule | chromatin accessibility (WPMY-1 cells [1]) | AP-1-driven luciferase reporter activity (AP-1) | NAD+ levels (WPMY-1 cells [2]) | poly(ADP-ribosyl)ation of c-JUN and c-FOS (PARP-1; lactate 48 h, immunoprecipitation) | total poly(ADP-ribosyl)ation levels (PARP-1; lactate-treated WPMY-1 cells) | Olaparib-enhanced migration of PC3 cells (PC3 cells [3]) | Olaparib-induced proliferation (EdU) (PC3 cells [4]) | anti-tumor activity of the combination (tumor volume) (PC3 + WPMY-1 tumors) | HA deposition in response to Olaparib [5] | primary endpoint of phase 3 trial [6]
1 | CC(O)C(=O)O (stereo not shown) [lactate] | widespread decrease in chromatin accessibility | repressed an AP-1-driven luciferase reporter | lower than in untreated cells | impaired the poly(ADP-ribosyl) ation of c-JUN and c-FOS | reduced total poly(ADP-ribosyl) ation levels | – | – | – | – | –
2 | B1 | – | – | – | – | – | completely blocked the enhanced migration of PC3 cells | blocked Olaparib-induced proliferation in stromal cells | enhanced Olaparib anti-tumor activity | efficiently degraded HA deposition | failed to meet the primary endpoint
